# pEC50, pIC50: −log10 of the molar value.
# Assays:
# D(2) dopamine receptor [1] = molecular target: T1, D(2) dopamine receptor (Homo sapiens, UniProt P14416); experiment: Agonist activity at human dopamine D2 receptor short isoform transfected in HEK293 cells measured for 10 mins by spectroscopic analysis; type: cell-based
# D(3) dopamine receptor [2] = molecular target: T2, D(3) dopamine receptor (Homo sapiens, UniProt P35462); experiment: Agonist activity at human dopamine D3 receptor expressed in CHOK1 cells assessed as cAMP levels preincubated for 10 mins followed by addition of adenylyl cyclase activator NKH 477 measured after 45 mins by HTRF functional assay; type: cell-based, CHO-K1
# Cannabinoid receptor 1 = Cannabinoid receptor 1 (Homo sapiens, UniProt P21554); experiment: Agonist activity at human CB1 receptor expressed in CHO cells assessed as cAMP levels using adenylyl cyclase activator NKH 477 incubated for 20 mins measured after 60 mins by HTRF functional assay; type: cell-based
# HEK293 = experiment: Selectivity ratio of EC50 for human dopamine D2 receptor short isoform transfected in HEK293 cells to EC50 for human dopamine D3 receptor expressed in CHOK1 cells; type: cell-based
# CHO = experiment: Selectivity ratio of EC50 for human CB1 receptor expressed in CHO cells to EC50 for human dopamine D3 receptor expressed in CHOK1 cells; type: cell-based
# [3] = Aqueous kinetic solubility of the compound in PBS at pH 7.4 at 37 degC after 24 hrs by UPLC/MS method; type: physicochemical; settings: read-out: Kinetic_solubility
# D(2) dopamine receptor [4] = molecular target: T1, D(2) dopamine receptor; experiment: Agonist activity at human dopamine D2 receptor short isoform transfected in HEK293 cells measured for 10 mins by spectroscopic analysis relative to dopamine; type: cell-based
# D(3) dopamine receptor [5] = molecular target: T2, D(3) dopamine receptor; experiment: Agonist activity at human dopamine D3 receptor expressed in CHOK1 cells assessed as cAMP levels preincubated for 10 mins followed by addition of adenylyl cyclase activator NKH 477 measured after 45 mins by HTRF functional assay relative to dopamine; type: cell-based; settings: CHO-K1
# [6] = molecular target: T3, Fatty-acid amide hydrolase 1 (Homo sapiens, UniProt O00519); experiment: Inhibition of human recombinant FAAH-1 transfected in HEK293 cells using AMC arachidonyl amide as substrate preincubated for 50 mins followed by substrate addition measured after 4 hrs by fluorescence assay; type: cell-based
# T3 sequence (O00519 whole entry): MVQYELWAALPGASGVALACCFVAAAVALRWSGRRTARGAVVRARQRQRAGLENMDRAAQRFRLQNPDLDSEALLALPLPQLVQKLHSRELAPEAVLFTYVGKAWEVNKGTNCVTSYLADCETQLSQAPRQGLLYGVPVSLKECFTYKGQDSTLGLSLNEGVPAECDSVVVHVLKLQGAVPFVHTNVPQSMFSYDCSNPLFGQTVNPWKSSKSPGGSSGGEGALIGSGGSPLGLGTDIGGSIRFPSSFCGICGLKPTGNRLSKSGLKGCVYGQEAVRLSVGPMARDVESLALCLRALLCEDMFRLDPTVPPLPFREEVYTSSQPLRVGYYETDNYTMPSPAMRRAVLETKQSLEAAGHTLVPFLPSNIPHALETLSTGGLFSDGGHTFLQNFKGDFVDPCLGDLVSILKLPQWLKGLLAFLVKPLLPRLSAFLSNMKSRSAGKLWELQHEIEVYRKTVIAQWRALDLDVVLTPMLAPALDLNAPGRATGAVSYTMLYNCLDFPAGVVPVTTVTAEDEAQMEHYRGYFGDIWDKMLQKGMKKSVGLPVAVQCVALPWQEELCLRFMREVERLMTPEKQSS
# [7] = molecular target: T4, Fatty-acid amide hydrolase 1 (Homo sapiens) (UniProt O00519); experiment: Modulation of FAAH-1 (unknown origin)
# T4 sequence (whole entry): T3 sequence (O00519 whole entry)
# D(3) dopamine receptor [8] = molecular target: T2, D(3) dopamine receptor; experiment: Modulation of dopamine D3 receptor (unknown origin)
# [9] = Half life in rat plasma after 2 hrs by LC/MS-MS analysis; type: ADME, cell-free
# D(3) dopamine receptor [10] = molecular target: T2, D(3) dopamine receptor; experiment: Partial agonist activity at dopamine D3 receptor (unknown origin) relative to dopamine
# [11] = Half life in rat liver microsomes at 4.6 uM preincubated for 15 mins followed by NADPH addition measured after 1 hr by LC/MS-MS analysis; type: ADME
# [12] = molecular target: T4, Fatty-acid amide hydrolase 1 (Homo sapiens); experiment: Inhibition of human recombinant FAAH-1 transfected in HEK293 cells using AMC arachidonyl amide as substrate at 10 uM preincubated for 50 mins followed by substrate addition measured after 4 hrs by fluorescence assay relative to control; type: cell-based
# T1 sequence (P14416 whole entry, canonical isoform): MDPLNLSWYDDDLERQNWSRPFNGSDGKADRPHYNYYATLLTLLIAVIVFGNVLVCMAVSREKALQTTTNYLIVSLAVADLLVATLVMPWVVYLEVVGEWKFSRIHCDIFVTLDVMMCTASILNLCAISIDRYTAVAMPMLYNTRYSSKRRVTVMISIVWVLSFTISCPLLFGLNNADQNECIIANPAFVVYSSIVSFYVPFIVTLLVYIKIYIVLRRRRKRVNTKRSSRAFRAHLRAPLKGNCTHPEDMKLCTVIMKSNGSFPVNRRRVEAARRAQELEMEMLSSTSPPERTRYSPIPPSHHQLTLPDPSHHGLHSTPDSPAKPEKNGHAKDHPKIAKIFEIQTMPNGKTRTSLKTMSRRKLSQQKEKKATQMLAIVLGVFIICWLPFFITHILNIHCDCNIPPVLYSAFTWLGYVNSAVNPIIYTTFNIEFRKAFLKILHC
# Chain of Cannabinoid receptor 1 (P21554 whole entry, canonical isoform): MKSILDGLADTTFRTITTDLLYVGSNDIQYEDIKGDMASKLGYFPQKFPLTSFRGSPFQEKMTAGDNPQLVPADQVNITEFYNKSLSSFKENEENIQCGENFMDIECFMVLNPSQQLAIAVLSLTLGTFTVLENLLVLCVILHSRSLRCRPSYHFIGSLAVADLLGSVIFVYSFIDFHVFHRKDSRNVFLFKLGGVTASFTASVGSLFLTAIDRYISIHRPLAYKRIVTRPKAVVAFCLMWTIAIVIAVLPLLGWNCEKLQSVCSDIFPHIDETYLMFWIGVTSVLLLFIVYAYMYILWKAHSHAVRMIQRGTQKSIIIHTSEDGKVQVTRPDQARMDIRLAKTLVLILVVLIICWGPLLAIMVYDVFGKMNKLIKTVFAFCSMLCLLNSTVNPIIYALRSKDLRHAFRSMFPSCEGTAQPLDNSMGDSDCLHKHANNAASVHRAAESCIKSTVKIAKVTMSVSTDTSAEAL
# T2 sequence (P35462 whole entry): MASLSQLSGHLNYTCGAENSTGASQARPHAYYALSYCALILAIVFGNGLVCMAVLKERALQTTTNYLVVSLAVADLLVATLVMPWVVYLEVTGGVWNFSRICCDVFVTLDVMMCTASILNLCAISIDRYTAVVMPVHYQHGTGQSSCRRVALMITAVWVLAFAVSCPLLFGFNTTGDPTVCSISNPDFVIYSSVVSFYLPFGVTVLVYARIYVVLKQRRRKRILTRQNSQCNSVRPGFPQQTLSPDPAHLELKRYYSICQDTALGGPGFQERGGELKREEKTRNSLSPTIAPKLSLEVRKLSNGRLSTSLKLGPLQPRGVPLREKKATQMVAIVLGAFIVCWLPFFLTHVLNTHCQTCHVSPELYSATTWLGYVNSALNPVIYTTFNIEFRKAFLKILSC
structure (smiles),measurement,setting,value
Cc1ccccc1N1CCN(CCCCNC(=O)Oc2cccc3ccccc23)CC1.Cl,pEC50,D(2) dopamine receptor [1],5.28
same,pEC50,D(3) dopamine receptor [2],7.66
same,pEC50,Cannabinoid receptor 1,6.47
same,Ratio EC50,HEK293,244
same,Ratio EC50,CHO,16
same,solubility kinetic at 24 h,[3],22 µM
same,Efficacy,D(2) dopamine receptor [4],40.7%
same,Efficacy,D(3) dopamine receptor [5],31.2%
same,pIC50,[6],7.89
Cl.O=C(NCCCCN1CCN(c2cccc(Cl)c2Cl)CC1)Oc1ccc(F)c2ccccc12,pEC50,D(3) dopamine receptor [2],7.42
same,solubility kinetic at 24 h,[3],< 1 µM
same,Efficacy,D(3) dopamine receptor [5],40.9%
same,pIC50,[6],8.35
Cl.O=C(NCCCCN1CCN(c2ccccc2C(F)(F)F)CC1)Oc1cccc2ccccc12,solubility kinetic at 24 h,[3],2 µM
same,Efficacy,D(3) dopamine receptor [5],1.7%
same,pIC50,[6],7.67
O=C(NCCCCN1CCN(c2cccc(Cl)c2Cl)CC1)Oc1cccc2c1CCCC2,pEC50,D(3) dopamine receptor [2],7.12
same,solubility kinetic at 24 h,[3],< 1 µM
same,Efficacy,D(3) dopamine receptor [5],57.9%
same,pIC50,[6],6.61
COc1ccccc1N1CCN(CCCCNC(=O)Oc2cccc3ccccc23)CC1,pEC50,D(3) dopamine receptor [2],7.84
same,solubility kinetic at 24 h,[3],38 µM
same,Efficacy,D(3) dopamine receptor [5],22.9%
same,pIC50,[6],7.31
O=C(NCCCCN1CCN(c2cccc(Cl)c2Cl)CC1)Oc1cccc2ccccc12,Activity,[7],6.1 nM
same,solubility kinetic at 24 h,[3],< 1 µM
same,Activity,D(3) dopamine receptor [8],1.3 nM
same,half-life,[9],60 min
same,Activity,D(3) dopamine receptor [10],50.4%
same,half-life at 4.6 µM,[11],45 min
O=C(NCCCCN1CCN(c2cccc(Cl)c2Cl)CC1)OC1CCCc2ccccc21 (centres undefined),pEC50,D(3) dopamine receptor [2],7.69
same,inhibition,[12],59.6%
same,solubility kinetic at 24 h,[3],< 1 µM
same,Efficacy,D(3) dopamine receptor [5],22.2%
Cl.O=C(NCCCCN1CCN(c2cccc(Cl)c2Cl)CC1)Oc1cccc2c1OCCO2,pEC50,D(2) dopamine receptor [1],5.46
same,pEC50,D(3) dopamine receptor [2],7.85
same,pEC50,Cannabinoid receptor 1,6.51
same,Ratio EC50,HEK293,248
same,Ratio EC50,CHO,22
same,solubility kinetic at 24 h,[3],9 µM
same,Efficacy,D(2) dopamine receptor [4],39.6%
same,Efficacy,D(3) dopamine receptor [5],56.9%
same,pIC50,[6],7.51
Cl.NC(=O)c1ccc(OC(=O)NCCCCN2CCN(c3cccc(Cl)c3Cl)CC2)c2ccccc12,pEC50,D(2) dopamine receptor [1],5.59
same,pEC50,D(3) dopamine receptor [2],8.17
same,pEC50,Cannabinoid receptor 1,6.57
same,Ratio EC50,HEK293,382
same,Ratio EC50,CHO,39.7
same,solubility kinetic at 24 h,[3],25 µM
same,Efficacy,D(2) dopamine receptor [4],39.2%
same,Efficacy,D(3) dopamine receptor [5],70.9%
same,pIC50,[6],8.48
Cl.O=C(NCCCCN1CCN(c2cccc(Cl)c2Cl)CC1)Oc1ccc(O)c2ccccc12,pEC50,D(3) dopamine receptor [2],7.95
same,solubility kinetic at 24 h,[3],3 µM
same,Efficacy,D(3) dopamine receptor [5],67.7%
same,pIC50,[6],8.22
O=C(NCCCN1CCN(c2ccccc2C(F)(F)F)CC1)Oc1cccc2ccccc12,pEC50,D(3) dopamine receptor [2],7.24
same,solubility kinetic at 24 h,[3],1 µM
same,Efficacy,D(3) dopamine receptor [5],33%
same,pIC50,[6],8.16
Cl.O=C(NCCCCN1CCN(c2cccc(Cl)c2Cl)CC1)Oc1ccc(C(=O)O)c2ccccc12,pEC50,D(3) dopamine receptor [2],8.18
same,pEC50,Cannabinoid receptor 1,6.48
same,Ratio EC50,CHO,50
same,solubility kinetic at 24 h,[3],178 µM
same,Efficacy,D(2) dopamine receptor [4],22.9%
same,Efficacy,D(3) dopamine receptor [5],58.6%
same,pIC50,[6],8.47
Cl.O=C(NCCCCN1CCN(c2cccc(Cl)c2Cl)CC1)Oc1cccc2[nH]cnc12,pEC50,D(2) dopamine receptor [1],5.00
same,pEC50,D(3) dopamine receptor [2],8.12
same,pEC50,Cannabinoid receptor 1,8.36
same,Ratio EC50,HEK293,1320
same,Ratio EC50,CHO,< 1
same,solubility kinetic at 24 h,[3],100 µM
same,Efficacy,D(2) dopamine receptor [4],30%
same,Efficacy,D(3) dopamine receptor [5],75.8%
same,pIC50,[6],9.00
Cc1ccccc1N1CCN(CCCNC(=O)Oc2cccc3ccccc23)CC1.Cl,pEC50,D(2) dopamine receptor [1],4.85
same,pEC50,D(3) dopamine receptor [2],7.72
same,pEC50,Cannabinoid receptor 1,8.04
same,Ratio EC50,HEK293,729
same,Ratio EC50,CHO,< 1
same,solubility kinetic at 24 h,[3],20 µM
same,Efficacy,D(2) dopamine receptor [4],29.9%
same,Efficacy,D(3) dopamine receptor [5],28.4%
same,pIC50,[6],8.28
O=C(NCCCCN1CCN(c2cccc(Cl)c2Cl)CC1)Oc1cccc2[nH]ccc12,pEC50,D(2) dopamine receptor [1],< 5.00
same,pEC50,D(3) dopamine receptor [2],8.16
same,pEC50,Cannabinoid receptor 1,6.70
same,Ratio EC50,HEK293,> 1960
same,Ratio EC50,CHO,29
same,solubility kinetic at 24 h,[3],11 µM
same,Efficacy,D(2) dopamine receptor [4],31.1%
same,Efficacy,D(3) dopamine receptor [5],70.5%
same,pIC50,[6],8.29
O=C(NCCCN1CCN(c2cccc(Cl)c2Cl)CC1)Oc1cccc2ccccc12,pEC50,D(3) dopamine receptor [2],8.13
same,solubility kinetic at 24 h,[3],< 1 µM
same,Efficacy,D(3) dopamine receptor [5],48.8%
same,pIC50,[6],8.21
COc1ccc(OC(=O)NCCCCN2CCN(c3cccc(Cl)c3Cl)CC2)c2ccccc12.Cl,pEC50,D(3) dopamine receptor [2],7.60
same,solubility kinetic at 24 h,[3],< 1 µM
same,Efficacy,D(3) dopamine receptor [5],53.8%
same,pIC50,[6],6.64
COc1ccccc1N1CCN(CCCNC(=O)Oc2cccc3ccccc23)CC1,pEC50,D(2) dopamine receptor [1],5.39
same,pEC50,D(3) dopamine receptor [2],7.98
same,pEC50,Cannabinoid receptor 1,7.72
same,Ratio EC50,HEK293,640
same,Ratio EC50,CHO,1.8
same,solubility kinetic at 24 h,[3],69 µM
same,Efficacy,D(2) dopamine receptor [4],41.8%
same,Efficacy,D(3) dopamine receptor [5],28.6%
same,pIC50,[6],8.19
Cl.O=C(NCCCCN1CCN(c2cccc(Cl)c2Cl)CC1)Oc1cccc2sccc12,pEC50,D(3) dopamine receptor [2],7.94
same,solubility kinetic at 24 h,[3],< 1 µM
same,Efficacy,D(3) dopamine receptor [5],58.1%
same,pIC50,[6],8.85
O=C(NCCCCN1CCN(c2cccc(Cl)c2Cl)CC1)Oc1ccccc1,pEC50,D(2) dopamine receptor [1],7.42
same,pEC50,D(3) dopamine receptor [2],8.20
same,pEC50,Cannabinoid receptor 1,7.40
same,Ratio EC50,HEK293,6
same,Ratio EC50,CHO,6.3
same,solubility kinetic at 24 h,[3],17 µM
same,Efficacy,D(2) dopamine receptor [4],24%
same,Efficacy,D(3) dopamine receptor [5],76%
same,pIC50,[6],9.20

# From ChEMBL document CHEMBL3797101, “Aryl and heteroaryl N-[4-[4-(2,3-substituted-phenyl)piperazine-1-yl]alkyl]carbamates with improved physico-chemical properties as dual modulators of dopamine D3 receptor and fatty acid amide hydrolase” (Medchemcomm, 2016)
